Laboratory results as given in ChEMBL document CHEMBL1140422, “A new bisintercalating anthracycline with picomolar DNA binding affinity” (J Med Chem, 2005).

Tested on: Jurkat
Assay: Cytotoxicity against Jurkat T lymphocytes by MTT assay
Format: functional, cell-based
Conditions: Homo sapiens

Row | Compound | IC50 [µM] | IC75 [µM]
1 | COc1cccc2c1C(=O)c1c(O)c3c(c(O)c1C2=O)C[C@@](O)(C(C)=O)C[C@@H]3O[C@H]1C[C@H](NCc2cccc(CN[C@@H]3C[C@@H](O[C@H]4C[C@](O)(C(C)=O)Cc5c(O)c6c(c(O)c54)C(=O)c4c(OC)cccc4C6=O)O[C@H](C)[C@@H]3O)c2)[C@H](O)[C@H](C)O1 | 0.017 | 0.0535
2 | COc1cccc2c1C(=O)c1c(O)c3c(c(O)c1C2=O)C[C@@](O)(C(C)=O)C[C@@H]3O[C@H]1C[C@H](NCc2ccc(CN[C@@H]3C[C@@H](O[C@H]4C[C@](O)(C(C)=O)Cc5c(O)c6c(c(O)c54)C(=O)c4c(OC)cccc4C6=O)O[C@H](C)[C@@H]3O)cc2)[C@H](O)[C@H](C)O1 | 0.0177 | 0.06
3 | COc1cccc2c1C(=O)c1c(O)c3c(c(O)c1C2=O)C[C@@](O)(C(C)=O)C[C@@H]3O[C@H]1C[C@H](N)[C@H](O)[C@H](C)O1 [DAUNORUBICIN] | 0.0826 | 0.182
